ChEMBL document CHEMBL1201862, “PubChem BioAssay data set” (2004)
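1) Cells in 96-well plates. 2) Compound, 48 h, 5 concentrations. 3) Linear interpolation between surrounding doses. 4) Unreached endpoint = highest concentration. Abbreviation: GI50, concentration required for 50% inhibition of growth.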 The source made the active and inactive calls. No stated cut-off is given here; in the data, active = GI50 up to about 1.1 µM and inactive = higher.

Columns and labels:
Test in all cases: NCI anticancer screen, dose series, 48 h
SK-MEL-2 = system: SK-MEL-2
UACC-62 = system: UACC-62
SNB-75 = system: SNB-75
NCI-H226 = system: NCI-H226
PC-3 = system: PC-3
DU-145 = system: DU-145
NCI-H522 = system: NCI-H522
Hs-578T = system: Hs-578T
HCT-15 = system: HCT-15
MOLT-4 = system: MOLT-4
SF-268 = system: SF-268
Malme-3M = system: Malme-3M
MDA-N = system: MDA-N
NCI/ADR-RES = system: NCI/ADR-RES
HL-60 = system: HL-60
BT-549 = system: BT-549
SK-MEL-28 = system: SK-MEL-28
MDA-MB-231 = system: MDA-MB-231
SR = system: SR
TK-10 = system: TK-10

Measured: GI50

CN(C)CCNS(=O)(=O)N(C)C
inactive: SK-MEL-2 > 100 µM | UACC-62 > 100 µM | SNB-75 > 100 µM | NCI-H226 > 100 µM | PC-3 > 100 µM | DU-145 > 100 µM | NCI-H522 > 100 µM | Hs-578T > 100 µM | MOLT-4 > 100 µM | SF-268 > 100 µM | Malme-3M > 100 µM | MDA-N > 100 µM | NCI/ADR-RES > 100 µM | HL-60 > 100 µM | BT-549 > 100 µM | SK-MEL-28 > 100 µM | MDA-MB-231 > 100 µM | SR > 100 µM | TK-10 > 100 µM
> 100 µM: HCT-15

OCCCc1ccc2c(c1)[C@H](CO)[C@@H](c1ccc(O)cc1)O2
inactive: SK-MEL-2 > 100 µM | UACC-62 51.9 µM | SNB-75 > 100 µM | NCI-H226 > 100 µM | PC-3 50.4 µM | DU-145 > 100 µM | NCI-H522 > 100 µM | Hs-578T 19.5 µM | MOLT-4 19.5 µM | SF-268 > 100 µM | Malme-3M 13.8 µM | MDA-N 87.7 µM | NCI/ADR-RES > 100 µM | HL-60 78.2 µM | BT-549 20.4 µM | SK-MEL-28 36.4 µM | MDA-MB-231 > 100 µM | SR 33.6 µM | TK-10 > 100 µM
> 100 µM: HCT-15

O=C(/C=C/c1ccco1)c1cccc(C(=O)/C=C/c2ccco2)n1
active: HL-60 0.0409 µM
4.92 µM: HCT-15
inactive: SK-MEL-2 25.5 µM | UACC-62 27.8 µM | SNB-75 45.5 µM | NCI-H226 > 100 µM | PC-3 13.2 µM | DU-145 24.9 µM | NCI-H522 3.9 µM | Hs-578T 4.4 µM | MOLT-4 2.19 µM | SF-268 5.24 µM | Malme-3M 25.7 µM | MDA-N 10.7 µM | NCI/ADR-RES 24.2 µM | BT-549 13 µM | SK-MEL-28 15.4 µM | MDA-MB-231 40.1 µM | SR 1.37 µM | TK-10 41.2 µM

CC1(C)N=C(N)N=C(N)N1CCCCc1ccccc1
inactive: SK-MEL-2 > 32.9 µM | SNB-75 15.4 µM | NCI-H226 6.47 µM | PC-3 9.51 µM | DU-145 3.57 µM | Hs-578T 3.21 µM | NCI/ADR-RES > 90.2 µM | BT-549 2.16 µM | SK-MEL-28 8.59 µM | MDA-MB-231 > 64.9 µM | TK-10 1.19 µM
2.92 µM: HCT-15
active: UACC-62 0.453 µM | NCI-H522 0.708 µM | MOLT-4 0.104 µM | SF-268 < 0.025 µM | Malme-3M 0.282 µM | MDA-N 0.046 µM | HL-60 0.431 µM | SR < 0.0334 µM

N/C(S)=N/N=C/c1ccc(N)cn1
inactive: SK-MEL-2 > 10 µM | UACC-62 3.19 µM | SNB-75 2.4 µM | NCI-H226 4.24 µM | PC-3 6.15 µM | DU-145 2.75 µM | NCI-H522 3.63 µM | Hs-578T > 8.36 µM | MOLT-4 1.95 µM | SF-268 4.29 µM | Malme-3M 4.42 µM | MDA-N > 6.59 µM | NCI/ADR-RES 3.08 µM | HL-60 1.91 µM | BT-549 3.48 µM | SK-MEL-28 > 10 µM | MDA-MB-231 > 6.79 µM | SR 3.67 µM | TK-10 > 10 µM
5.87 µM: HCT-15

COc1ccnc2c1C(=O)c1nc3ccccc3c3ccnc-2c13
inactive: Hs-578T 1.55 µM | MOLT-4 1.42 µM
active: SK-MEL-2 0.789 µM | UACC-62 0.136 µM | SNB-75 0.04 µM | NCI-H226 0.17 µM | PC-3 0.141 µM | DU-145 0.0479 µM | NCI-H522 0.0375 µM | SF-268 0.137 µM | Malme-3M 0.262 µM | MDA-N 0.25 µM | NCI/ADR-RES 0.0713 µM | HL-60 0.06 µM | BT-549 0.397 µM | SK-MEL-28 0.305 µM | MDA-MB-231 0.21 µM | SR 0.0343 µM | TK-10 0.324 µM
< 0.01 µM: HCT-15

CCCCCC/C=C\CCCCCCCCCc1cccc(O)c1C(=O)O [GINKGOLIC ACID 17:1]
inactive: SK-MEL-2 31.7 µM | UACC-62 34 µM | SNB-75 > 100 µM | NCI-H226 60.7 µM | PC-3 51.9 µM | DU-145 > 100 µM | NCI-H522 > 100 µM | Hs-578T > 100 µM | MOLT-4 83.8 µM | SF-268 > 100 µM | Malme-3M > 100 µM | MDA-N > 100 µM | NCI/ADR-RES > 100 µM | HL-60 > 100 µM | BT-549 > 100 µM | SK-MEL-28 > 100 µM | MDA-MB-231 > 100 µM | SR 45.4 µM | TK-10 65 µM
32.6 µM: HCT-15
